Structures can show the parent of a compound that is named as a salt. Where two headings read alike, the source gives them in different places.
System: HIV
Assay: MT4 assay: antiviral HIV activity in MT-4 cells
Assay type: cell-based
Conditions: read-out 96 hours later with cell titer glo, 10 point dose response
Procedure: Antiviral HIV activity and cytotoxicity values for compounds of the invention from Table 1 were measured in parallel in the HTLV-1 transformed cell line MT-4 based on the method previously described (Hazen et al., 2007, In vitro antiviral activity of the novel, tyrosyl-based human immunodeficiency virus (HIV) type 1 protease inhibitor brecanavir (GW640385) in combination with other antiretrovirals and against a panel of protease inhibitor-resistant HIV (Hazen et al., “In vitro antiviral activity of the novel, tyrosyl-based human immunodeficiency virus (HIV) type 1 protease inhibitor brecanavir (GW640385) in combination with other antiretrovirals and against a panel of protease inhibitor-resistant HIV”, Antimicrob. Agents Chemother. 2007, 51: 3147-3154; and Pauwels et al., “Sensitive and rapid assay on MT-4 cells for the detection of antiviral compounds against the AIDS virus”, J. of Virological Methods 1987, 16: 171-185).
Luciferase activity was measured 96 hours later by adding a cell titer glo (Promega, Madison, Wis.). Percent inhibition of cell protection data was plotted relative to no compound control. Under the same condition, cytotoxicity of the compounds was determined using cell titer Glo™ (Promega, Madison, Wis.). IC50s were determined from a 10 point dose response curve using 3-4-fold serial dilution for each compound, which spans a concentration range>1000 fold.
These values are plotted against the molar compound concentrations using the standard four parameter logistic equation: y=((Vmax*x^n)/(K^n+x^n))+Y2
Y2=minimum y n=slope factor
Vmax=maximum y x=compound concentration [M]

[1] = read-out: HIV MT4 Assay IC50, HTLV-1 transformed cell line MT-4, Trifluoroacetic acid salt
[2] = Human immunodeficiency virus 1, MT4, 96 h, read-out: HIV MT4 Assay IC50 (μM), HTLV-1 transformed cell line MT-4

Compound	IC50 [2] [µM]	other results
Cc1nc2c(c3c(n2C)CCCC3)c(-c2ccc3c(c2C)NCCO3)c1[C@H](OC(C)(C)C)C(=O)O (atropisomer, axis not shown; (M)) [Example 130, (2S)(M)-2-(tert-butoxy)-2-(2,9-dimethyl-4-(5-methyl-3,4-dihydro-2H-benzo[b][1,4]oxazin-6-yl)-6,7,8,9-tetrahydro-5H-pyrido[2,3-b]indol-3-yl)acetic acid, Trifluoroacetic acid salt]	–	IC50 [1]: 0.01 µM
Cc1nc2c(ccn2C)c(-c2cc(F)c3c(c2C)CCCO3)c1[C@H](OC(C)(C)C)C(=O)O (atropisomer, axis not shown; (M)) [Example 131, (2S)(M)-2-(tert-butoxy)-2-(4-(8-fluoro-5-methylchroman-6-yl)-1,6-dimethyl-1H-pyrrolo[2,3-b]pyridin-5-yl)acetic acid, Trifluoroacetic acid salt]	0.055	–
Cc1nc2c(ccn2Cc2cccc(F)c2F)c(-c2cc(F)c3c(c2C)NCCO3)c1[C@H](OC(C)(C)C)C(=O)O (atropisomer, axis not shown; (M)) [Example 132]	0.021	–
Cc1nc2c(ccn2Cc2ccc(F)c(F)c2)c(-c2ccc3c(c2C)NCCO3)c1[C@H](OC(C)(C)C)C(=O)O (atropisomer, axis not shown; (P)) [Example 100, (2S)(P)-2-(tert-butoxy)-2-(1-(3,4-difluorobenzyl)-6-methyl-4-(5-methyl-3,4-dihydro-2H-benzo[b][1,4]oxazin-6-yl)-1H-pyrrolo[2,3-b]pyridin-5-yl)acetic acid, trifluoroacetic acid salt]	–	IC50 (HTLV-1 transformed cell line MT-4, trifluoroacetic acid salt, read-out: HIV MT4 Assay IC50): 0.1 µM
Cc1nc2c(c3c(n2C)CCCC3)c(-c2ccc3c(c2C)NCCO3)c1[C@H](OC(C)(C)C)C(=O)O (atropisomer, axis not shown; (P)) [Example 129, (2S)(P)-2-(tert-butoxy)-2-(2,9-dimethyl-4-(5-methyl-3,4-dihydro-2H-benzo[b][1,4]oxazin-6-yl)-6,7,8,9-tetrahydro-5H-pyrido[2,3-b]indol-3-yl)acetic acid, Trifluoroacetic acid salt]	–	IC50 [1]: 1 µM
Cc1ccc(-c2c(C(OC(C)(C)C)C(=O)O)c(C)nc3c2ccn3Cc2ccc(F)cc2)cc1 (stereo not drawn) [Example 1, 2-(tert-butoxy)-2-(1-(4-fluorobenzyl)-6-methyl-4-(p-tolyl)-1H-pyrrolo[2,3-b]pyridin-5-yl)acetic acid]	0.18	–
Cc1ccc(-c2c([C@H](OC(C)(C)C)C(=O)O)c(C)nc3c2ccn3Cc2ccc(F)cc2)cc1 [Example 2, (S)-2-(tert-butoxy)-2-(1-(4-fluorobenzyl)-6-methyl-4-(p-tolyl)-1H-pyrrolo[2,3-b]pyridin-5-yl)acetic acid]	0.08	–
Cc1nc2c(ccn2Cc2ccc(F)c(F)c2)c(-c2ccc(Cl)cc2)c1[C@H](OC(C)(C)C)C(=O)O [Example 3, (S)-2-(tert-butoxy)-2-(4-(4-chlorophenyl)-1-(3,4-difluorobenzyl)-6-methyl-1H-pyrrolo[2,3-b]pyridin-5-yl)acetic acid]	0.09	–
Cc1ccc(-c2c(C(OC(C)(C)C)C(=O)O)c(C)nc3c2ccn3Cc2ccccn2)cc1 (stereo not drawn) [Example 4, 2-(tert-Butoxy)-2-(6-methyl-1-(pyridin-2-ylmethyl)-4-(p-tolyl)-1H-pyrrolo[2,3-b]pyridin-5-yl)acetic acid, Trifluoroacetic acid salt]	1.05	–
Cc1ccc(-c2c(C(OC(C)(C)C)C(=O)O)c(C)nc3c2ccn3Cc2ccc(F)c(F)c2)cc1 (stereo not drawn) [Example 5, 2-(tert-butoxy)-2-(1-(3,4-difluorobenzyl)-6-methyl-4-(p-tolyl)-1H-pyrrolo[2,3-b]pyridin-5-yl)acetic acid]	0.2	–
Cc1ccc(-c2c(C(OC(C)(C)C)C(=O)O)c(C)nc3c2ccn3Cc2cc(F)ccc2F)cc1 (stereo not drawn) [Example 6, 2-(tert-butoxy)-2-(1-(2,5-difluorobenzyl)-6-methyl-4-(p-tolyl)-1H-pyrrolo[2,3-b]pyridin-5-yl)acetic acid]	0.182	–
Cc1ccc(-c2c([C@H](OC(C)(C)C)C(=O)O)c(C)nc3c2ccn3Cc2cc(F)ccc2F)cc1 [Example 7, (S)-2-(tert-butoxy)-2-(1-(2,5-difluorobenzyl)-6-methyl-4-(p-tolyl)-1H-pyrrolo[2,3-b]pyridin-5-yl)acetic acid]	0.106	–
Cc1ccc(-c2c(C(OC(C)(C)C)C(=O)O)c(C)nc3c2ccn3Cc2cc(F)c(F)c(F)c2)cc1 (stereo not drawn) [Example 8, 2-(tert-butoxy)-2-(6-methyl-4-(p-tolyl)-1-(3,4,5-trifluorobenzyl)-1H-pyrrolo[2,3-b]pyridin-5-yl)acetic acid]	0.16	–
Cc1ccc(-c2c([C@H](OC(C)(C)C)C(=O)O)c(C)nc3c2ccn3Cc2cc(F)c(F)c(F)c2)cc1 [Example 9, (S)-2-(tert-butoxy)-2-(6-methyl-4-(p-tolyl)-1-(3,4,5-trifluorobenzyl)-1H-pyrrolo[2,3-b]pyridin-5-yl)acetic acid]	0.04	–
Cc1ccc(-c2c([C@@H](OC(C)(C)C)C(=O)O)c(C)nc3c2ccn3Cc2cc(F)c(F)c(F)c2)cc1 [Example 10, (R)-2-(tert-butoxy)-2-(6-methyl-4-(p-tolyl)-1-(3,4,5-trifluorobenzyl)-1H-pyrrolo[2,3-b]pyridin-5-yl)acetic acid]	10	–
Cc1nc2c(ccn2Cc2ccc(F)c(F)c2)c(-c2ccc3c(c2)CCCO3)c1C(OC(C)(C)C)C(=O)O (stereo not drawn) [Example 11, 2-(tert-butoxy)-2-(4-(chroman-6-yl)-1-(3,4-difluorobenzyl)-6-methyl-1H-pyrrolo[2,3-b]pyridin-5-yl)acetic acid]	0.09	–
Cc1ccc(-c2c(C(OC(C)(C)C)C(=O)O)c(C)nc3c2ccn3Cc2ccc(C)c(F)c2)cc1 (stereo not drawn) [Example 12, 2-(tert-butoxy)-2-(1-(3-fluoro-4-methylbenzyl)-6-methyl-4-(p-tolyl)-1H-pyrrolo[2,3-b]pyridin-5-yl)acetic acid]	2.1	–
Cc1ccc(-c2c(C(OC(C)(C)C)C(=O)O)c(C)nc3c2ccn3Cc2ccc(F)cc2Cl)cc1 (stereo not drawn) [Example 13, 2-(tert-butoxy)-2-(1-(2-chloro-4-fluorobenzyl)-6-methyl-4-(p-tolyl)-1H-pyrrolo[2,3-b]pyridin-5-yl)acetic acid]	0.43	–
Cc1ccc(-c2c([C@@H](OC(C)(C)C)C(=O)O)c(C)nc3c2ccn3[C@H](C)c2ccc(F)cc2)cc1 [Example 14, (R)-2-(tert-butoxy)-2-(1-((R)-1-(4-fluorophenyl)ethyl)-6-methyl-4-(p-tolyl)-1H-pyrrolo[2,3-b]pyridin-5-yl)acetic acid]	0.71	–
Cc1ccc(-c2c([C@H](OC(C)(C)C)C(=O)O)c(C)nc3c2ccn3[C@H](C)c2ccc(F)cc2)cc1 [Example 15, (S)-2-(tert-butoxy)-2-(1-((R)-1-(4-fluorophenyl)ethyl)-6-methyl-4-(p-tolyl)-1H-pyrrolo[2,3-b]pyridin-5-yl)acetic acid]	0.1	–
Cc1ccc(-c2c(C(OC(C)(C)C)C(=O)O)c(C)nc3c2ccn3Cc2ccc(Cl)c(F)c2)cc1 (stereo not drawn) [Example 16, 2-(tert-butoxy)-2-(1-(4-chloro-3-fluorobenzyl)-6-methyl-4-(p-tolyl)-1H-pyrrolo[2,3-b]pyridin-5-yl)acetic acid]	0.36	–
Cc1ccc(-c2c([C@@H](OC(C)(C)C)C(=O)O)c(C)nc3c2ccn3Cc2ccc(F)c(F)c2)cc1 [Example 17, (R)-2-(tert-butoxy)-2-(1-(3,4-difluorobenzyl)-6-methyl-4-(p-tolyl)-1H-pyrrolo[2,3-b]pyridin-5-yl)acetic acid]	10	–
Cc1ccc(-c2c([C@H](OC(C)(C)C)C(=O)O)c(C)nc3c2ccn3Cc2ccc(F)c(F)c2)cc1 [Example 18, (S)-2-(tert-butoxy)-2-(1-(3,4-difluorobenzyl)-6-methyl-4-(p-tolyl)-1H-pyrrolo[2,3-b]pyridin-5-yl)acetic acid]	0.1	–
Cc1ccc(-c2c(C(OC(C)(C)C)C(=O)O)c(C)nc3c2ccn3Cc2ccccc2)cc1 (stereo not drawn) [Example 19, 2-(1-benzyl-6-methyl-4-(p-tolyl)-1H-pyrrolo[2,3-b]pyridin-5-yl)-2-(tert-butoxy)acetic acid]	0.17	–
Cc1ccc(-c2c(C(OC(C)(C)C)C(=O)O)c(C)nc3c2ccn3Cc2cc(Cl)ccc2F)cc1 (stereo not drawn) [Example 20, 2-(tert-butoxy)-2-(1-(5-chloro-2-fluorobenzyl)-6-methyl-4-(p-tolyl)-1H-pyrrolo[2,3-b]pyridin-5-yl)acetic acid]	0.23	–
Cc1ccc(-c2c(C(OC(C)(C)C)C(=O)O)c(C)nc3c2ccn3Cc2cccc(F)c2F)cc1 (stereo not drawn) [Example 21, 2-(tert-butoxy)-2-(1-(2,3-difluorobenzyl)-6-methyl-4-(p-tolyl)-1H-pyrrolo[2,3-b]pyridin-5-yl)acetic acid]	0.1	–
Cc1ccc(-c2c(C(OC(C)(C)C)C(=O)O)c(C)nc3c2ccn3Cc2cccc(Cl)c2F)cc1 (stereo not drawn) [Example 22, 2-(tert-butoxy)-2-(1-(3-chloro-2-fluorobenzyl)-6-methyl-4-(p-tolyl)-1H-pyrrolo[2,3-b]pyridin-5-yl)acetic acid]	0.86	–

— patent US8609653B2, “Azaindole compounds and methods for treating HIV” (priority 2011, dated 2013)
